The source of these data is PubChem BioAssay (NCI).

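In this assay, cells in 96-well plates receive the compound at five concentrations for 48 hours. Endpoints are linearly interpolated between the surrounding concentrations. TGI: concentration producing complete growth inhibition.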 Bounds are passed on as bounds.

Holding throughout (test): NCI anticancer screen, dose series, 48 h
Experiment [1] deals with OVCAR-4 ovarian.
Experiment [2] deals with SN12C renal.
Experiment [3] has as its system KM12 colon.
The test system of experiment [4] is SK-OV-3 ovarian.
Experiment [5] relates to HOP-92 NSCLC.
For experiment [6], the system named is NCI-H460 lung.
Experiment [7] concerns A498 renal.
The test system of experiment [8] is T-47D breast.
In experiment [9] the test system is SF-295 CNS.
Experiment [10] concerns HCC-2998 colon.
Experiment [11] has as its system RXF 393 renal.
For experiment [12], the system named is SNB-75 CNS.

On to `O=c1[nH]nc(Cc2ccccc2)n1CCO`, for which the TGI in experiment [1], in [2], in [3], in experiment [4], in [5] and in [6] was over 100 µM each time. The TGI in experiment [7], in experiment [8], in [9] and in experiment [10] was over 100 µM throughout.
Regarding `CC(=O)OC[C@@H](OC(C)=O)[C@H](OC(C)=O)[C@@H]1OC(C)(C)O[C@@H]1C1SCCCS1`, the TGI in [11], in experiment [1], in [3], in experiment [4], in experiment [12] and in experiment [6] was over 100 µM in each case. Also, the TGI in experiment [7], in [8], in experiment [9] and in [10] was over 100 µM throughout.
As for `CC1=C(C(=O)c2ccccc2)C23C(=O)N(c4ccccc4)C(=O)C2=C(O)C=CC3(O)N1` (stereo not given), the TGI in experiment [11] was 43 µM; in [1] it was over 100 µM; in experiment [2] it was over 100 µM; in experiment [3], 53.5 µM; in [5], 60 µM; in [12] it was 77.5 µM. Also, the TGI was over 100 µM in [6]; over 100 µM in experiment [7]; over 100 µM in experiment [8]; over 100 µM in [9]; 56.4 µM in [10].
On to `NC1=CN2c3ccccc3N(CC(=O)O)C2C=C1` (stereo not given), for which the TGI in experiment [11], in [1], in experiment [3], in experiment [4], in experiment [5] and in [12] was over 100 µM throughout. The TGI in experiment [6], in experiment [7], in experiment [8], in [9] and in experiment [10] was over 100 µM in each case.
`N#Cc1c(-c2ccccc2)c(N=Nc2ccc(Cl)cc2)c(=O)n2c1[nH]c1ccccc12`: the TGI is over 100 µM in experiment [11]; 85.6 µM in [1]; over 100 µM in experiment [2]; over 100 µM in [3]; over 100 µM in [4]; over 100 µM in experiment [12]. For the same molecule, the TGI in [6], in experiment [7], in [8], in experiment [9] and in experiment [10] was over 100 µM throughout.
As for `O=C(N/N=C(/COc1ccc([N+](=O)[O-])cc1)N=Cc1ccncc1)c1ccncc1`, the TGI in experiment [11], in experiment [1], in experiment [2], in experiment [3], in experiment [4] and in experiment [12] was over 100 µM throughout. Also, the TGI in experiment [6], in experiment [7], in experiment [8], in [9] and in [10] was over 100 µM each time.
With `CC(=O)N=C1N(/C=C2\C(=O)Oc3ccccc3C2=O)C(=O)/C(=C/c2ccc(Cl)cc2Cl)N1C`, the TGI in [11], in experiment [1], in experiment [2], in experiment [3], in [4] and in [12] was over 100 µM throughout. Moreover, the TGI in [7], in [8], in experiment [9] and in [10] was over 100 µM in each case.
For the molecule `Cc1ccc(/C(O)=C/c2nc3ccccc3s/c2=N/CS(=O)(=O)c2ccc(C)cc2)cc1`, the TGI in experiment [1], in [2], in experiment [3], in experiment [4], in [5] and in [12] was over 10 µM throughout. Further, the TGI in experiment [8], in experiment [9] and in experiment [10] was over 10 µM in each case.
On to `Cc1ccc(/C=N/Nc2ccc3ccccc3n2)s1`, for which the TGI in experiment [11] was over 100 µM; in experiment [1], over 100 µM; in [2], 28.4 µM; in experiment [3], over 100 µM; in experiment [4] it was over 100 µM; in experiment [5], 78.3 µM. For the same molecule, the TGI in experiment [12] was over 100 µM; in experiment [8] it was over 100 µM; in [9], 38.4 µM; in [10], 30.7 µM.
As to `COc1ccc(N2C(=O)C3c4[nH]c5ccc(F)cc5c4C4CCC(c5ccccc5)CC4C3C2=O)cc1` (stereo not given), the TGI in experiment [1] is 32.6 µM; in experiment [2], over 100 µM; in experiment [3] it was over 100 µM; in experiment [4] it was 49.5 µM; in experiment [5] it was 36.8 µM; in [12] it was 31.6 µM. Besides, the TGI was 46.8 µM in experiment [6]; 34.3 µM in experiment [7]; over 100 µM in experiment [8]; over 100 µM in experiment [9]; over 100 µM in experiment [10].
As for `C=CCO[C@]1(CC=C)C(=O)C(=O)OC1C1COC(C)(C)O1` (stereo not given in full), the TGI in experiment [11] was 40.8 µM; in experiment [2] it was over 100 µM; in experiment [3], 39.3 µM; in experiment [5], 41.3 µM; in experiment [12] it was 77.2 µM; in experiment [6] it was over 100 µM. Also, the TGI in [7], in experiment [8], in [9] and in [10] was over 100 µM throughout.
Consider `C=C1C(=O)O[C@@H]2C=C(C)C3=CC(=O)[C@](C)(C[C@H](OC(=O)/C(C)=C\C)[C@@H]12)O3`, for which the TGI in experiment [11] turned out to be 1.52 µM; in experiment [2] it was 5.1 µM; in experiment [3], 2.99 µM; in experiment [4], 16.8 µM; in [5], 2.18 µM; in experiment [12], 26.3 µM. Further, the TGI in experiment [6] stood at 7.73 µM; in experiment [8], 3.81 µM; in [9] it was 6.47 µM; in [10], 3.06 µM.
With `O=C1CC(c2cccc(Br)c2)n2cccc21` (stereo not given), the TGI in [11], in experiment [1], in experiment [2], in [3], in experiment [4] and in [5] was over 100 µM in each case. For the same molecule, the TGI in experiment [12], in experiment [7], in [8], in experiment [9] and in experiment [10] was over 100 µM throughout.
